In EPA's aquatic toxicity sets:

These molecules were tested on Tetrahymena pyriformis (assay: 48 h IGC50 (-log10 mol/L); higher = more toxic).
`CCCCCCCCCCC=O` was tested, and the “48 h IGC50 (-log10 mol/L)” value was 4.69.
In the case of `C/C=C/C(=O)OC(C)(C)C`, the “48 h IGC50 (-log10 mol/L)” value was 2.36.
With `c1ccc(Cc2ccccn2)cc1` the “48 h IGC50 (-log10 mol/L)” value was 3.38.
For `CC(O)CCO` (stereo not drawn), the “48 h IGC50 (-log10 mol/L)” value was 0.699.
For `COC(=O)C(C)Br` (stereo not drawn), the “48 h IGC50 (-log10 mol/L)” value was 4.18.
`OCc1ccccc1O` was tested, and the “48 h IGC50 (-log10 mol/L)” value was 2.05.
For `CC(C)OC(=O)CC#N`, the “48 h IGC50 (-log10 mol/L)” value was 2.05.
With `CCOc1cccc(C=O)c1O` the “48 h IGC50 (-log10 mol/L)” value was 3.85.
In the case of `O=Cc1cccc([N+](=O)[O-])c1O`, the “48 h IGC50 (-log10 mol/L)” value was 3.87.
With `CC(C)(Br)C(=O)C(C)(C)Br` the “48 h IGC50 (-log10 mol/L)” value was 3.51.
For `C=Cc1ccc2ccccc2c1`, the “48 h IGC50 (-log10 mol/L)” value was 4.24.
With `Oc1ccccc1-c1ccccc1O` the “48 h IGC50 (-log10 mol/L)” value was 3.88.
`O=[N+]([O-])c1ccc(F)c(Cl)c1` was tested, and the “48 h IGC50 (-log10 mol/L)” value was 3.8.
With `O=C(OCc1ccccc1)c1ccc(O)cc1` the “48 h IGC50 (-log10 mol/L)” value was 4.55.
With `O=C(CBr)Nc1cc([N+](=O)[O-])ccc1O` the “48 h IGC50 (-log10 mol/L)” value was 3.87.
`O=C(CBr)c1ccccc1` was tested, and the “48 h IGC50 (-log10 mol/L)” value was 5.82.
`OCC(Cl)Cl` was tested, and the “48 h IGC50 (-log10 mol/L)” value was 2.01.
In the case of `NCCO`, the “48 h IGC50 (-log10 mol/L)” value was 1.11.
`O=[N+]([O-])c1cc(Cl)ccc1O` was tested, and the “48 h IGC50 (-log10 mol/L)” value was 5.12.
With `CCC(C)C(=O)OC` (stereo not drawn) the “48 h IGC50 (-log10 mol/L)” value was 1.83.
In the case of `Nc1ccc([N+](=O)[O-])cc1[N+](=O)[O-]`, the “48 h IGC50 (-log10 mol/L)” value was 3.72.
For `CCCOC(=O)c1ccccc1`, the “48 h IGC50 (-log10 mol/L)” value was 3.42.
`C/C=C/C(=O)OCCCC` was tested, and the “48 h IGC50 (-log10 mol/L)” value was 2.84.
In the case of `Cc1cc(Br)cc(Cl)c1O`, the “48 h IGC50 (-log10 mol/L)” value was 4.28.
For `CC(=O)CCc1ccc(O)cc1`, the “48 h IGC50 (-log10 mol/L)” value was 2.5.
With `CCCCCC#N` the “48 h IGC50 (-log10 mol/L)” value was 2.62.
For `CCCCCC/C=C/C=O`, the “48 h IGC50 (-log10 mol/L)” value was 4.6.
`O=C(O)CCCBr` was tested, and the “48 h IGC50 (-log10 mol/L)” value was 2.23.
`Clc1cccc(Cl)c1Br` was tested, and the “48 h IGC50 (-log10 mol/L)” value was 4.34.
In the case of `C=C(C)CCC(C)=O`, the “48 h IGC50 (-log10 mol/L)” value was 2.12.
For `CC(=O)OCCCCCCl`, the “48 h IGC50 (-log10 mol/L)” value was 2.87.
`C=CC(=O)OC(C)(C)C` was tested, and the “48 h IGC50 (-log10 mol/L)” value was 3.27.
With `CCOC(=O)CCC(=O)CCC(=O)OCC` the “48 h IGC50 (-log10 mol/L)” value was 2.36.
In the case of `O=[N+]([O-])c1ccc(Br)s1`, the “48 h IGC50 (-log10 mol/L)” value was 4.41.
For `NC(=O)c1ccc(Cl)cc1`, the “48 h IGC50 (-log10 mol/L)” value was 3.09.
In the case of `O=Cc1ccc2c(c1)Cc1ccccc1-2`, the “48 h IGC50 (-log10 mol/L)” value was 4.5.
In the case of `NC(=O)CCCl`, the “48 h IGC50 (-log10 mol/L)” value was 1.41.
`CCCCCN=C=S` was tested, and the “48 h IGC50 (-log10 mol/L)” value was 4.71.
`CC=CC(=O)OC(C)C` was tested, and the “48 h IGC50 (-log10 mol/L)” value was 2.22.
`NNC=O` was tested, and the “48 h IGC50 (-log10 mol/L)” value was 2.13.
`CCC[N+](=O)[O-]` was tested, and the “48 h IGC50 (-log10 mol/L)” value was 2.01.
For `CCN(CC)CCO`, the “48 h IGC50 (-log10 mol/L)” value was 1.5.
In the case of `Cc1cc(O)ccc1O`, the “48 h IGC50 (-log10 mol/L)” value was 4.86.
For `O=[N+]([O-])c1cc(I)c(O)c(I)c1`, the “48 h IGC50 (-log10 mol/L)” value was 4.81.
In the case of `O=C(O)c1c(Cl)cccc1Cl`, the “48 h IGC50 (-log10 mol/L)” value was 2.33.
For `CCCCC(Br)CBr` (stereo not drawn), the “48 h IGC50 (-log10 mol/L)” value was 4.15.
`CC(C)C(C)O` (stereo not drawn) was tested, and the “48 h IGC50 (-log10 mol/L)” value was 2.
In the case of `CC(=O)c1ccco1`, the “48 h IGC50 (-log10 mol/L)” value was 1.96.
For `O=[N+]([O-])c1cccnc1Cl`, the “48 h IGC50 (-log10 mol/L)” value was 3.87.
For `OCc1cccc(Br)c1`, the “48 h IGC50 (-log10 mol/L)” value was 3.37.
With `C#Cc1ccccc1` the “48 h IGC50 (-log10 mol/L)” value was 2.86.
`CCCCCCC(=O)c1ccccc1` was tested, and the “48 h IGC50 (-log10 mol/L)” value was 4.56.
With `CCC=C(C)C=O` the “48 h IGC50 (-log10 mol/L)” value was 2.98.
`CC(=O)c1c(C)c[nH]c1C` was tested, and the “48 h IGC50 (-log10 mol/L)” value was 2.68.
With `O=[N+]([O-])c1cc(F)ccc1F` the “48 h IGC50 (-log10 mol/L)” value was 3.33.
`O=[N+]([O-])c1cccc(CO)c1` was tested, and the “48 h IGC50 (-log10 mol/L)” value was 2.78.
`CCCC(=O)O` was tested, and the “48 h IGC50 (-log10 mol/L)” value was 2.43.
`C=CCBr` was tested, and the “48 h IGC50 (-log10 mol/L)” value was 3.57.
For `N#Cc1cc([N+](=O)[O-])cc([N+](=O)[O-])c1`, the “48 h IGC50 (-log10 mol/L)” value was 4.22.
`CCCCCCOC(C)=O` was tested, and the “48 h IGC50 (-log10 mol/L)” value was 2.99.
With `O=Cc1ccc(Br)cc1` the “48 h IGC50 (-log10 mol/L)” value was 3.59.
`CCCCCCCCCN` was tested, and the “48 h IGC50 (-log10 mol/L)” value was 4.7.
In the case of `CCOC(=O)c1ccc(C#N)cc1`, the “48 h IGC50 (-log10 mol/L)” value was 3.37.
For `CC#CCOC(C)=O`, the “48 h IGC50 (-log10 mol/L)” value was 2.12.
`O=[N+]([O-])c1ccc(O)c(O)c1` was tested, and the “48 h IGC50 (-log10 mol/L)” value was 4.17.
In the case of `CCCCCCCCCCCC(C)O` (stereo not drawn), the “48 h IGC50 (-log10 mol/L)” value was 5.17.
With `ClCCc1ccccc1` the “48 h IGC50 (-log10 mol/L)” value was 3.17.
In the case of `C#CCCCCO`, the “48 h IGC50 (-log10 mol/L)” value was 1.71.
`Cc1ccc(O)c(O)c1` was tested, and the “48 h IGC50 (-log10 mol/L)” value was 3.37.
In the case of `O=C(O)CCCCCBr`, the “48 h IGC50 (-log10 mol/L)” value was 3.03.
For `C=C(C)C(=O)OC`, the “48 h IGC50 (-log10 mol/L)” value was 1.78.
With `O=[N+]([O-])c1ccc(CCl)cc1` the “48 h IGC50 (-log10 mol/L)” value was 4.18.
With `Nc1ncc([N+](=O)[O-])cn1` the “48 h IGC50 (-log10 mol/L)” value was 2.57.
`O=[N+]([O-])c1ccc(I)c([N+](=O)[O-])c1` was tested, and the “48 h IGC50 (-log10 mol/L)” value was 5.12.
With `Cc1cc(N)ncc1[N+](=O)[O-]` the “48 h IGC50 (-log10 mol/L)” value was 3.37.
In the case of `N#CCCCBr`, the “48 h IGC50 (-log10 mol/L)” value was 2.54.
With `Cc1ccc(O)c([N+](=O)[O-])n1` the “48 h IGC50 (-log10 mol/L)” value was 3.39.
With `CCOc1cccc2ccccc12` the “48 h IGC50 (-log10 mol/L)” value was 4.25.
In the case of `CC(C)c1ccc(Br)cc1`, the “48 h IGC50 (-log10 mol/L)” value was 3.85.
`Fc1cccc2ccccc12` was tested, and the “48 h IGC50 (-log10 mol/L)” value was 3.39.
`NCCCCO` was tested, and the “48 h IGC50 (-log10 mol/L)” value was 2.02.
With `CC(C)(C)c1ccc(Br)cc1` the “48 h IGC50 (-log10 mol/L)” value was 3.75.
In the case of `CCC/C=C/CO`, the “48 h IGC50 (-log10 mol/L)” value was 2.53.
